pIC50, pKd: −log10 of the molar value.
How the values were obtained:
[1] = biological target: T1, potassium ion channel hERG (Homo sapiens, UniProt Q12809); assay: Assay 5 hERG assay (patch clamp, CHO cells over-expressing hERG); format: cell-based; conditions: SyncroPatch 384PE, room temperature, geometric mean, read-out: Assay 5 (hERG Hu CHO if EPh CR-Syncro) GMean IC50
T1 construct: expressed in transfected cells; host or cells: Chinese hamster ovary K1 (CHO)
Summary of the method: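 hERG currents recorded by automated patch clamp at room temperature in CHO-K1 cells, 6-point cumulative concentrations. SyncroPatch runs used KF-based internal (pH 7.2) and NMDG-containing external solution (pH 7.4), 0.33% DMSO; QPatchII runs used 2% or 0.4% DMSO. Only wells meeting seal-resistance and current-size criteria kept.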

[2] = biological target: GSK3β (Glycogen synthase kinase-3 beta) (Homo sapiens, UniProt P49841); assay: Assay 6 GSK3β assay (ThermoFisher Z-Lyte FRET); format: biochemical; conditions: ATP Conc: 10 μM, geometric mean; read-out: Assay 6 (GSK3β FRET-Z-Lyte Cr) GMean IC50
Summary of the method: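 Z-Lyte FRET: 0.22-0.92 ng kinase with 2 μM Ser/Thr 09 peptide in HEPES pH 7.5, MgCl2, EGTA, 60 min at room temperature, then 60 min development. Compounds in 1% DMSO, 10-point 3-fold series from 10 μM; sigmoidal dose-response fit.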

PCSK9 [3] = biological target: PCSK9 (Homo sapiens, UniProt Q8NBP7, G670E/V474I); assay: biochemical
PCSK9 [4] = biological target: T2, PCSK9 (Homo sapiens, UniProt Q8NBP7); assay: Assay 2 Biophysical human PCSK9 assay (SPR, Biacore); format: binding; parameters: biotinylated human PCSK9 (31-692)-Avi-His6; His6 (C); conditions: single-cycle kinetics, 30° C., geometric mean, read-out: Assay 2 (PCSK9 BIAcore DBA Cr) GMean Kd
Procedure: The SPR binding experiments were performed on a Biacore S200 optical biosensor unit at 30° C. A Series S Sensor Chip SA that is designed to bind biotinylated molecules for interaction analysis in Biacore systems was equilibrated at room temperature prior to use. The running buffer for protein tethering and subsequent ligand binding experiments was 10 mM HEPES pH 7.4, 150 mM NaCl, 0.05% (v/v) Tween 20 pH 7.4.
For the surface tethering of PCSK9, biotinylated human PCSK9 (31-692)-Avi-His6 at a concentration of 0.5 mg/mL was used. Prior to the surface tethering, the surface was exposed to a solution of 50 mM NaOH, 500 mM NaCl via 3 consecutive injections of this solution with a contact time of 60 s and a flowrate of 10 μL min^−1 to remove non-conjugated streptavidin. The PCSK9 protein was diluted to a concentration of 20 μg/mL using running buffer and injected with a contact time of 180-300 s and a flowrate of 10 μL min^−1 over a single flow channel (typically flow channel 2 or flow channel 4) with the aim to achieve protein capture levels of >5000 response units (RU). Remaining biotin binding sites were blocked via 2 consecutive injections of a 10 μM D-biotin solution in running buffer with a contact time of 60 s and a flowrate of 10 μL min^−1 over all flow-channels. Flow-channels 1 and 3 typically served as a reference surface throughout the subsequent binding experiments.
The binding experiments were all performed at a flow rate of 30 PL min^−1 and by employing the method of single-cycle kinetics. This approach involves the sequential injection of a compound concentration series without regeneration steps. A contact time between 90-150 s was selected, which was followed by a 40 min dissociation phase to allow for a proper estimation of the dissociation rate constant. Test compounds were delivered in DMSO at a concentration of 10 mM and a digital dispenser HP D300 was used to set up the compound concentration series using 6 concentrations. The tested concentrations have been 30, 100, 300, 1000, 3000 and 10000 nM. Prior to injecting any compound, the surfaces were equilibrated by injecting running buffer over them in three separate pulses. The data collection rate was set to 10 Hz.
The raw sensorgrams of the compound injections were first subjected to reference subtraction (subtracting the signal from flow channel 1 and/or 3 from the signal from channels 2 and/or 4 respectively) and then blank subtraction (subtracting the signal from injecting DMSO controls from the reference subtracted data). The resulting double-referenced sensorgrams were then fitted using a 1:1 binding interaction model using the manufactures software package to extract kinetic- and affinity data. Active compounds have been defined by creating a detectable binding signal at the highest compound concentration ([…]) of 3 RUs. Kinetic- and affinity data on active compounds are only provided for those compounds where the binding signal at the highest compound concentration ([…]) is 50% of the theoretical maximum binding signal for a 1:1 binding interaction (Rmax, typically between 15-20 RUs) in order to enable a proper fitting of the data.
Target sequence in this assay (Q8NBP7 31-692): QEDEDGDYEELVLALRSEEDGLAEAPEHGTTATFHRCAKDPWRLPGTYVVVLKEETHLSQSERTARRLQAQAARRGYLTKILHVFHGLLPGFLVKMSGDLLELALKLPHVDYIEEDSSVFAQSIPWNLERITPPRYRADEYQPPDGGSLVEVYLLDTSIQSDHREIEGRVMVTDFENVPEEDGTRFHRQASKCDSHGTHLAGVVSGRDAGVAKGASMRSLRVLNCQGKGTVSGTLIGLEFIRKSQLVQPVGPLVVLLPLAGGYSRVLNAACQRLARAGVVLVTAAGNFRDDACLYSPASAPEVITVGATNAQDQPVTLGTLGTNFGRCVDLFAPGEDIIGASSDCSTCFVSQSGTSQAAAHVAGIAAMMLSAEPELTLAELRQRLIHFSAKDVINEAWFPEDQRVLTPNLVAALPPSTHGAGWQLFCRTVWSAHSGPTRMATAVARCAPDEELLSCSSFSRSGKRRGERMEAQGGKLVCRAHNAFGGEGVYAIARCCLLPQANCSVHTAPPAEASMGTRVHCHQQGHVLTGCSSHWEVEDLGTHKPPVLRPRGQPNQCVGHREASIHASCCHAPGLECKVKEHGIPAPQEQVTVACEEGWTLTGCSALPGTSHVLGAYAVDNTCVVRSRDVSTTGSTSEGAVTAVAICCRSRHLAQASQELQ

PCSK9 [5] = biological target: T2, PCSK9; parameters: host or cells: patients; conditions: clinical trials, patients; alirocumab compared to placebo; cited from earlier work
Target sequence in this assay (Q8NBP7 153-692): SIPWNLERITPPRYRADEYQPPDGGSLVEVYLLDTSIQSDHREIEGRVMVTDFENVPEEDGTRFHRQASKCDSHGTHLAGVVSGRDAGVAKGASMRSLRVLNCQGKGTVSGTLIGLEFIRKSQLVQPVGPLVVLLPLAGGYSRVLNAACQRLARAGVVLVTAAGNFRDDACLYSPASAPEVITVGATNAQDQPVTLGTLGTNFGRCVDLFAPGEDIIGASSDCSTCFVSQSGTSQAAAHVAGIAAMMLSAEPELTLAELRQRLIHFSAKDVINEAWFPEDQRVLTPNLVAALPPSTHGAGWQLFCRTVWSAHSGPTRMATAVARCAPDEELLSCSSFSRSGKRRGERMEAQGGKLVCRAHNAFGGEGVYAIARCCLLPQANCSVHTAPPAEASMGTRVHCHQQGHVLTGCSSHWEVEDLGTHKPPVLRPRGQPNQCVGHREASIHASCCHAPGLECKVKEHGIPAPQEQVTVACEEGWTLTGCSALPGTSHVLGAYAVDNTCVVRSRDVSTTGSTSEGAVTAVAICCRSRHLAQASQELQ

T1 sequence (Q12809 whole entry): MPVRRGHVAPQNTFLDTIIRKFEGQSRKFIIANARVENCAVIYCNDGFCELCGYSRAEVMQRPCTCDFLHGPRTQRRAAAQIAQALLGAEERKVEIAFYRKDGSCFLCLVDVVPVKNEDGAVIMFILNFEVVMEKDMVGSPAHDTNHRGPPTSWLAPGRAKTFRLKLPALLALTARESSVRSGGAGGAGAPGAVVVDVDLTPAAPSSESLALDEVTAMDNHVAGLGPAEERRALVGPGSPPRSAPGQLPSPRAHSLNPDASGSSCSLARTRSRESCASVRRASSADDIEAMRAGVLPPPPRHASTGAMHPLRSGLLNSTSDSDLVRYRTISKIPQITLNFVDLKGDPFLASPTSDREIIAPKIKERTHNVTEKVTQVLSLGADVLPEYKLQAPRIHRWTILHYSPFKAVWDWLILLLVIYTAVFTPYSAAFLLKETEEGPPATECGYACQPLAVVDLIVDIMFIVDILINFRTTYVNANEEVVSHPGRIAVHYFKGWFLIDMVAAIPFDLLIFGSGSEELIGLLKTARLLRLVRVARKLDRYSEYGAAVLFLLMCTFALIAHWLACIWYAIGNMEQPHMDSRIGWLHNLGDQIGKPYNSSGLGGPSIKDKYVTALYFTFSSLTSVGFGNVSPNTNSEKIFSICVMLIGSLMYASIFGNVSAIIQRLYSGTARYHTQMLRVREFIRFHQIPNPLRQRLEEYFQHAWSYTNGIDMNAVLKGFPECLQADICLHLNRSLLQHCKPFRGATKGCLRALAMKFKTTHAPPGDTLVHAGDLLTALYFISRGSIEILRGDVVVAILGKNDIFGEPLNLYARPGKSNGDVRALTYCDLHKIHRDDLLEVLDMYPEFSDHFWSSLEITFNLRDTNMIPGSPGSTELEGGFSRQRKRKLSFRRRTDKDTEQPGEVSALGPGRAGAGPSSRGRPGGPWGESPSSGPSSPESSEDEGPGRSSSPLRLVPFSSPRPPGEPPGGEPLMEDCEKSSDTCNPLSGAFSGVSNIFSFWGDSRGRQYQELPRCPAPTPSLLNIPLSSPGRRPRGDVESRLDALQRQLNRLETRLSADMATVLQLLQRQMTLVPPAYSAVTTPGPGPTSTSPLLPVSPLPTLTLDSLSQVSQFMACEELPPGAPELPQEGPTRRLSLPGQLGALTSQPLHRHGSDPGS
Chain of GSK3β (Glycogen synthase kinase-3 beta) (P49841 whole entry): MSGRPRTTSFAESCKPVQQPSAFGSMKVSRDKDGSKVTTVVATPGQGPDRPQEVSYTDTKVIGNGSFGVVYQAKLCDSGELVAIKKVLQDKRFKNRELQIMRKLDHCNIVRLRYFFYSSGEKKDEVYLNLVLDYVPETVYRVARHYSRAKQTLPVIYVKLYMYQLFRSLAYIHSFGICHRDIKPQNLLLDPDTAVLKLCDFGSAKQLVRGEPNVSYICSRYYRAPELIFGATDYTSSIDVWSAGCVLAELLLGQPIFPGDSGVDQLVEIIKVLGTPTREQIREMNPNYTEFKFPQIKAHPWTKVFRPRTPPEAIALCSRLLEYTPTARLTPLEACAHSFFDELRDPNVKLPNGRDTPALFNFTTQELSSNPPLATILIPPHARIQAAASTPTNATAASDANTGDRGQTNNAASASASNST
Chain of PCSK9 (Homo sapiens, UniProt Q8NBP7, G670E/V474I) (Q8NBP7 with tags, fused parts or gaps V474I/G670E): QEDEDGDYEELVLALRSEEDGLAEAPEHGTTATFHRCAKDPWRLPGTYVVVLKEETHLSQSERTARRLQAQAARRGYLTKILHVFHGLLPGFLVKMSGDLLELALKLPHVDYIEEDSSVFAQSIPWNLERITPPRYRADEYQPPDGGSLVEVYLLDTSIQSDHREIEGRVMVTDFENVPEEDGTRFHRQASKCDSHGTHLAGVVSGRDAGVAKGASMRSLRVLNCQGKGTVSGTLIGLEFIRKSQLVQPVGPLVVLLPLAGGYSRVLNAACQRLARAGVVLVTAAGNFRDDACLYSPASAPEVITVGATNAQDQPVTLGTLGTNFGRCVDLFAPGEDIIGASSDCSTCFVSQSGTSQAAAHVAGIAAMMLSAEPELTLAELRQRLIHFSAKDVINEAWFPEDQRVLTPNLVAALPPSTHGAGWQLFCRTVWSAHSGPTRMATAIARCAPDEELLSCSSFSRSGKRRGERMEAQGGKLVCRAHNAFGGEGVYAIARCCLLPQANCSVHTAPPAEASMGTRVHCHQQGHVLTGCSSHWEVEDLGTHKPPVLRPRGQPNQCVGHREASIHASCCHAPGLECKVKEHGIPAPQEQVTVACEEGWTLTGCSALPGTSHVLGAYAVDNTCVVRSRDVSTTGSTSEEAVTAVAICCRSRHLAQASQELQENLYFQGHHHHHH

For `Cc1cnc(N[C@H]2CC[C@H](Nc3ccc(-n4ncc5cccnc54)cn3)C2)nn1` [Example 310, (1S,3S)—N′-(5-(1H-Pyrazolo[3,4-b]pyridin-1-yl)pyridin-2-yl)-N^3-(6-methyl-1,2,4-triazin-3-yl)cyclopentane-1,3-diamine], the pIC50 [1] was 4.46, the pIC50 [2] was less than 5.00 and the pIC50 (PCSK9 [3]) was 7.66. The pKd (PCSK9 [4]) was 7.72.
`Cc1cnc(N[C@H]2CC[C@H](Nc3ccc(-n4ncc5ccccc54)cn3)C2)nn1` [Example 311, (1S,3S)—N′-(5-(1H-Indazol-1-yl)pyridin-2-yl)-N^3-(6-methyl-1,2,4-triazin-3-yl)cyclopentane-1,3-diamine] gave a pIC50 [1] of 5.12, a pIC50 [2] of less than 5.00 and a pIC50 (PCSK9 [3]) of 8.26. For the same compound, the pKd (PCSK9 [4]) was 8.16.
For alirocumab, the “decrease in LDL levels” value (PCSK9 [5]) is listed as “about 50%”.
